From patent publication US20240067651A1 (Biohaven Therapeutics Ltd., priority 2019, published 2024)
Read-outs that look alike come from different tables or passages of the source.

Experiments:
[1] = tested on: Caco-2 monolayer; assay: Caco-2 Permeability Assay; format: in vitro ADME, human
Procedure, shortened: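 Caco-2 monolayers cultured 21 days (TEER >600 […]); test article at 10 μM in HBSS/HEPES pH 7.4 transport medium, dosed apical or basolateral, ±Pgp inhibitor. Incubated 90 min at 37 °C; both compartments quantified by LC-MS/MS. Papp (A→B, B→A), efflux ratio and % recovery calculated.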

[2] = Stability in Simulated Intestinal Fluid (SIF); format: in vitro ADME; set-up: key: % parent compound remaining relative to 0-minute sample
Procedure, shortened: (§1)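 Percent parent compound remaining, by LC-MS/MS against the 0-minute sample, is reported after incubation at 2 μg/mL (final) in pepsin-containing SGF at pH 1.2 or pancreatin-containing SIF at pH 6.8. Incubations run at 37° C for up to 60 minutes.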

[3] = Stability in Simulated Gastric Fluid (SGF); format: in vitro ADME; set-up: key: % parent compound remaining relative to 0-minute sample
Procedure, shortened: as §1

[4] = Plasma Stability; format: in vitro ADME, human
Procedure, shortened: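 Compounds incubated at 1 μM in fresh human plasma for 1 hour at 37° C, then protein-precipitated with acetonitrile/formic acid containing internal standard. Remaining parent measured by LC-MS/MS in triplicate, expressed as percent of control remaining.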

[5] = simulated intestinal fluid, remaining at 1 h
[6] = simulated gastric fluid, remaining at 1 h
[7] = % remaining after 1 h in simulated intestinal fluid
[8] = % remaining after 1 h in simulated gastric fluid
[9] = % remaining after 1 h in human plasma

Compound | Caco-2 Papp ([1]; Caco-2 monolayer) [×10⁻⁶ cm/s] | human Plasma stability ([4]; human plasma, remaining at 1 h) [% remaining] | SIF [2, 5] [% remaining] | SGF [3, 6] [% remaining] | SIF [2, 7] [% remaining] | SGF [3, 8] [% remaining] | human Plasma stability [4, 9] [% remaining] | also measured
CC(C)OCCn1c(=S)[nH]c(=O)c2c1ccn2C(=O)NCCOCCNC(=O)[C@H](NC(=O)OC(C)(C)C)C(C)C [Example 378, tert-butyl N-[(1R)-2-methyl-1-({2-[2-({4-oxo-1-[2-(propan-2-yloxy)ethyl]-2-sulfanylidene-1H,2H,3H,4H,5H-pyrrolo[3,2-d]pyrimidine-5-carbonyl}amino)ethoxy]ethyl}carba-moyl)propyl]carbamate] | 0.0903 | 93 |  |  |  |  |  | SIF ([2]; simulated intestinal fluid, bare number, unit or time not given): 96; SGF ([3]; simulated gastric fluid, bare number, unit or time not given): 98
CC(C)OCCn1c(SCOC(=O)N(C)CCOCCNC(=O)[C@H](N)C(C)C)nc(=O)c2[nH]ccc21.O=C(O)C(F)(F)F [Example 391, trifluoroacetic acid ({4-oxo-1-[2-(propan-2-yloxy)ethyl]-1H,4H,5H-pyrrolo[3,2-d]pyrimidin-2-yl}sulfanyl) methyl N-(2-{2-[(2R)-2-amino-3-methylbutanamido]ethoxy}ethyl)-N-methylcarbamate] | 3.65 | 1 | 70 | 96 |  |  |  | 
CC(C)OCCn1c(=S)n(COC(=O)OCCOCCOC(N)=O)c(=O)c2[nH]ccc21 [Example 403, 3-{[{{2-[2-(carbamoyloxy)ethoxy]ethoxy}car-bonyl)oxy]methyl}-1-[2-(propan-2-yloxy)ethyl]-2-sulfanylidene-1H,2H,3H,4H,5H-pyrrolo[3,2-d]pyrimidin-4-one] | 0.477 |  |  |  | 54 | 98 | 0 | 
(2R)-2-amino-4-(methylsulfanyl)-N-[2-(2-{[{{4-oxo-1-[2-(propan-2-yloxy)ethyl]-2-sulfanylidene-1H,2H,3H,4H,5H-pyrrolo[3,2-d]pyrimidin-5-yl}methoxy)carbonyl]oxy}ethoxy)eth-yl]butanamide; trifluoroacetic acid [Example 390] | 0.49 | 0 | 64 | 100 |  |  |  | 
(2R)-2-amino-4-methyl-N-[2-(2-{[{{4-oxo-1-[2-(propan-2-yloxy)ethyl]-2-sulfanylidene-1H,2H,3H,4H,5H-pyrrolo[3,2-d]pyrimidin-5-yl}methoxy)carbonyl]oxy}ethoxy)eth-yl]pentanamide; trifluoroacetic acid [Example 386] | 0.077 | 23 | 86 | 93 |  |  |  | 
(2R)-2-amino-N-[2-(2-{[{{4-oxo-1-[2-(propan-2-yloxy)ethyl]-2-sulfanylidene-1H,2H,3H,4H,5H-pyrrolo[3,2-d]pyrimidin-5-yl}methoxy)carbonyl]oxy}ethoxy)eth-yl]-3-phenylpropanamide; trifluoroacetic acid [Example 388] | <1.99 | 1 | 73 | 97 |  |  |  | 
(2R)-2-{[(tert-butoxy)carbonyl]amino}-4-methyl-N-[2-(2-{[{{4-oxo-1-[2-(propan-2-yloxy)ethyl]-2-sulfanylidene-1H,2H,3H,4H,5H-pyrrolo[3,2-d]pyrimidin-5-yl}methoxy)carbonyl]oxy}ethoxy)eth-yl]pentanamide [Example 385] | 3.87 | 1 | 84 | 94 |  |  |  | 
(2R)-2-{[(tert-butoxy)carbonyl]amino}-N-[2-(2-{[{{4-oxo-1-[2-(propan-2-yloxy)ethyl]-2-sulfanylidene-1H,2H,3H,4H,5H-pyrrolo[3,2-d]pyrimidin-5-yl}methoxy)carbonyl]oxy}ethoxy)eth-yl]-3-phenylpropanamide [Example 387] | 4.5 | 1 | 75 | 92 |  |  |  | 
bis (trifluoroacetic acid) 5-{[2-({[(5-{[(2S)-2-amino-4-methylpentanoyl]oxy}penta-noyl)oxy]methyl}sulfanyl)-4-oxo-1-[2-(propan-2-yloxy)ethyl]-1H,4H,5H-pyrrolo[3,2-d]pyrimidin-5-yl]methoxy}-5-oxopentyl (2S)-2-amino-4-methylpentanoate [Example 346] |  |  |  |  |  |  |  | Caco-2 Papp ([1]; Caco-2): <0.0623 ×10⁻⁶ cm/s; SIF ([2]; % remaining @ 1 h): 7% remaining; SGF ([3]; % remaining @ 1 h): 97% remaining; human Plasma stability ([4]; % remaining @ 1 h): 98% remaining
tert-butyl 3-(2-{[{{4-oxo-1-[2-(propan-2-yloxy)ethyl]-2-sulfanylidene-1H,2H,3H,4H,5H-pyrrolo[3,2-d]pyrimidin-5-yl}methoxy)carbonyl]oxy}eth-oxy)propanoate [Example 392] | 0.12 | 1 | 71 | 95 |  |  |  | 
tert-butyl N-[2-(2-{[(1-{4-oxo-1-[2-(propan-2-yloxy)ethyl]-2-sulfanylidene-1H,2H,3H,4H,5H-pyrrolo[3,2-d]pyrimidin-5-yl}ethoxy)carbonyl]amino}eth-oxy)ethyl]carbamate [Example 375] | <0.175 | 99 | 99 | 89 |  |  |  | 
tert-butyl N-[2-(2-{[{{4-oxo-1-[2-(propan-2-yloxy)ethyl]-2-sulfanylidene-1H,2H,3H,4H,5H-pyrrolo[3,2-d]pyrimidin-5-yl}methoxy)carbonyl]amino}ethoxy) ethyl]carbamate [Example 372] | 11.7 | 0 | 60 | 85 |  |  |  | 
trifluoroacetic acid ({4-oxo-1-[2-(propan-2-yloxy)ethyl]-1H,4H,5H-pyrrolo[3,2-d]pyrimidin-2-yl}sulfanyl)methyl N-[2-(2-aminoethoxy)ethyl]carbamate [Example 374] | 9.06 | 82 | 94 | 75 |  |  |  | 
trifluoroacetic acid {4-oxo-1-[2-(propan-2-yloxy)ethyl]-2-sulfanylidene-1H,2H,3H,4H,5H-pyrrolo[3,2-d]pyrimidin-5-yl}methyl (2R)-1-[2-(2-aminoacetamido)acetyl]pyrrolidine-2-carboxylate [Example 406] | 3.42 |  |  |  | 71 | 88 | 0 | 
trifluoroacetic acid {4-oxo-1-[2-(propan-2-yloxy)ethyl]-2-sulfanylidene-1H,2H,3H,4H,5H-pyrrolo[3,2-d]pyrimidin-5-yl}methyl N-[2-(2-aminoethoxy)ethyl]carbamate [Example 373] | 0.123 | 68 | 72 | 90 |  |  |  | 
{4-oxo-1-[2-(propan-2-yloxy)ethyl]-2-sulfanylidene-1H,2H,3H,4H,5H-pyrrolo [3,2-d]pyrimidin-5-yl}methyl 2-[(2S)-2-(benzoyloxy)-N,3-dimethylbutanamido]acetate [Example 401] | 0.43 |  |  |  | 8 | 90 | 0 | 
{4-oxo-1-[2-(propan-2-yloxy)ethyl]-2-sulfanylidene-1H,2H,3H,4H,5H-pyrrolo[3,2-d]pyrimidin-5-yl}methyl 2-[2-(2-{[(tert-butoxy)carbonyl]amino}acetamido)-N-methylacetamido]acetate [Example 407] | 14.6 |  |  |  | 1 | 98 | 0 | 
{4-oxo-1-[2-(propan-2-yloxy)ethyl]-2-sulfanylidene-1H,2H,3H,4H,5H-pyrrolo[3,2-d]pyrimidin-5-yl}methyl 2-[2-(acetyloxy)-N-methylacetamido]acetate [Example 400] | 0.242 |  |  |  | 26 | 99 | 89 | 
{4-oxo-1-[2-(propan-2-yloxy)ethyl]-2-sulfanylidene-1H,2H,3H,4H,5H-pyrrolo[3,2-d]pyrimidin-5-yl}methyl 2-{[(tert-butoxy)carbonyl](methyl)amino}acetate [Example 395] | 14.4 |  |  |  | 23 | 97 | 1 | 
{4-oxo-1-[2-(propan-2-yloxy)ethyl]-2-sulfanylidene-1H,2H,3H,4H,5H-pyrrolo[3,2-d]pyrimidin-5-yl}methyl (2R)-2-{[(tert-butoxy)carbonyl]amino}propanoate [Example 291] |  |  |  |  |  |  |  | Caco-2 Papp [1]: 21.9 ×10⁻⁶ cm/s; SIF ([2]; % remaining @ 1 h): 30% @ 1 h; SGF ([3]; % remaining @ 1 h): 66% @ 1 h; human Plasma stability ([4]; % remaining @ 1 h): 0% @ 1 h
